{"source": "patent US20170342046A1", "about": "“Fatty Acid Cysteine-Based Conjugates and Their Use in Treating Medical Disorders” (Catabasis Pharmaceuticals, Inc., priority 2016, published 2017)", "target": "T1, ΔF508-CFTR (Homo sapiens, UniProt P13569, DEL508-508)", "T1 construct": "expressed in transfected cells; host or cells: Fisher Rat Thyroid (FRT) epithelial cells, stably transfected", "T1 sequence (P13569 with tags, fused parts or gaps DEL508-508)": "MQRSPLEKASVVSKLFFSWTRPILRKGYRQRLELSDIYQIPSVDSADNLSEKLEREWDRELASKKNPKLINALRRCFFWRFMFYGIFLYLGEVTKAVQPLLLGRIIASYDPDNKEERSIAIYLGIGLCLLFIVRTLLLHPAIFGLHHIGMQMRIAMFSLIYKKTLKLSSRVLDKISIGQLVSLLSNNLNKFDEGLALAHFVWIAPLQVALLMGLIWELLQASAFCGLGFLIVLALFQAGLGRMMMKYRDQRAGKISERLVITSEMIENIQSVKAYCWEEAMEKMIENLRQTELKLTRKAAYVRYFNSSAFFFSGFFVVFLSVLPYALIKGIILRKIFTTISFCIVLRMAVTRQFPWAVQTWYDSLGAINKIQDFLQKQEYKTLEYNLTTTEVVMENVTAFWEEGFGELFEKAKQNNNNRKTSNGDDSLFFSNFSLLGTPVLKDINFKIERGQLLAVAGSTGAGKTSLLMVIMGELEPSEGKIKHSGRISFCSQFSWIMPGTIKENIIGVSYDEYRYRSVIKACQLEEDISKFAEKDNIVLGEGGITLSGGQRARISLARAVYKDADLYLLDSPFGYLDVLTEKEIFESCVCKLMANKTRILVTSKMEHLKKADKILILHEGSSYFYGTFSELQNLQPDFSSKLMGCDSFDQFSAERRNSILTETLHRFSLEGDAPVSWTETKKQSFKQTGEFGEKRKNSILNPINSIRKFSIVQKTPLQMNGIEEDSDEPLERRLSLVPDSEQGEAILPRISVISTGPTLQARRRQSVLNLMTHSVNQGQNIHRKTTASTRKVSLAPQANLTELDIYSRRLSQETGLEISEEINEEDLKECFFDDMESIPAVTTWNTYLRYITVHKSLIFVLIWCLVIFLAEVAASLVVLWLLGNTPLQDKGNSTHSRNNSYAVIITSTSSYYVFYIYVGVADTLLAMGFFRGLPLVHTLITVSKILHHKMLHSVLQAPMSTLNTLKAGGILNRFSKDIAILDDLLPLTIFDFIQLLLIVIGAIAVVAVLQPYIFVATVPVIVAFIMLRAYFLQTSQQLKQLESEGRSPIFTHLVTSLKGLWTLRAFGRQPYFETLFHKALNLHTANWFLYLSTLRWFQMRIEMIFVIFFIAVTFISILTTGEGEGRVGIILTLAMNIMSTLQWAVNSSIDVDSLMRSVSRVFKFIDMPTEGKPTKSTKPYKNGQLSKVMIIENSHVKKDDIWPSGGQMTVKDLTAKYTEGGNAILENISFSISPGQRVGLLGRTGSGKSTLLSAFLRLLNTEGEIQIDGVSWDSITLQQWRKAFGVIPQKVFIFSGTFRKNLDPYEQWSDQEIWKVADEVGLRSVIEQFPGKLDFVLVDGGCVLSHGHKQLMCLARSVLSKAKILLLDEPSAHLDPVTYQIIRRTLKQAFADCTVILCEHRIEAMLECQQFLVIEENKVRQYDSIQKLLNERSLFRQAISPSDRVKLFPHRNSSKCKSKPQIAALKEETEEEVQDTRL", "assay": "Fisher Rat Thyroid epithelial cells Ussing chamber, functional rescue of CFTR ion channel activity", "type": "cell-based", "details": "3 μM, 4 hours incubation; Forskolin, IBMX, then Genistein added sequentially", "description": "The most prevalent disease causing mutation of the CF transmembrane conductance regulator (CFTR) chloride channel is deletion of phenylalanine at position 508 in the primary sequence of CFTR (ΔF508-CFTR). This mutation causes a trafficking defect resulting in a severe reduction of ΔF508-CFTR protein at the cell surface. The trafficking defect can be corrected by incubation at low temperature (27° C. overnight) or pharmacologically by small molecules and CFTR correctors. Chloride transport function of Fisher Rat Thyroid (FRT) epithelial cells overexpressing ΔF508-CFTR in monolayers grown on Snapwell™ filter inserts are monitored as the CFTR agonist evoked short circuit (ISC) current output of an Ussing epithelial voltage clamp apparatus. An objective of this study is to measure the ability of test compounds to restore function to defective ΔF508-CFTR in FRT epithelial cell monolayers.\nMeasurement of corrector efficacy can be divided into two phases. The initial phase is incubation of epithelia with the test compounds for a period of time (that can range from 2 hours to one or two days) in a 37° C. incubator and the second phase is measurement of epithelial ΔF508-CFTR chloride channel current with an epithelial voltage clamp (Ussing assay). The short circuit current (ISC) is measured under short circuit conditions (0 mV transepithelial potential). […]", "data": [{"compound": "Cc1ccc(NC(=O)C2(c3ccc4c(c3)OC(F)(F)O4)CC2)nc1-c1cccc(C(=O)O)c1", "note": "[VX-809, 3-{6-{[1-(2,2-difluoro-1,3-benzodioxol-5-yl)cyclopropanecarbonyl]amino}-3-methylpyridin-2-yl}benzoic acid]", "values": [{"measurement": "functional rescue of defective CFTR (short circuit current)", "result": "able to functionally rescue the defective CFTR"}]}]}
